Where two headings read alike, the source gives them in different places.
Legend:
[1] = tested on: HER2-amplified breast cancer cell line SK-BR3; test: PODXL expression by RT-PCR in SK-BR3 introduced with reprogramming factor (4F); format: cell-based, human; conditions: 4F-introduced SK-BR3, treated with IC50 concentration of drug
Protocol: (§1) In FIG. 2, FIG. 2A is a schematic drawing describing a method of introducing reprogramming factor, MYOD1 or GFP and siRNA into MP-CCS-SY cell line. […] FIG. 2C is a schematic drawing describing introduction of a reprogramming factor into HCC827 or SK-BR3 cell line and a method of addition of each medicament.
(§2) RT-PCR was performed using the following method. Using RNeasy Plus Mini kit (Qiagen, Hilden, Germany), the total RNA was isolated. Using Go-taq qPCR Master Mix (Promega, Madison, USA), quantitative real-time PCR analysis was performed. The transcription level was standardized based on β-actin or GAPDH value.
(§3) Besides the above, an influence of the activation of oncogene signal on cell reprogramming was examined. Epithelial growth factor receptor (EGFR) mutated lung cancer cell line HCC827 and HER2-amplified breast cancer cell line SK-BR3 were used for the experiment. These cancer cell lines are sensitive to EGFR specific tyrosine kinase and HER2 tyrosine kinase inhibitor, respectively. […] Change of gene expression with or without introduction of 4F into HCC827 and SK-BR3 was examined by microarray analysis.

[2] = tested on: EGFR mutated lung cancer cell line HCC827; test: PODXL expression by RT-PCR in HCC827 introduced with reprogramming factor (4F); format: cell-based, human; conditions: 4F-introduced HCC827, treated with IC50 concentration of drug
Protocol: as §1, §2, §3

HCC827 cell line = conditions: HCC827, Dox(4F)+, two days
Protocol: as §2
(§4) Using a combination of a cancer cell sensitive to a certain kind of anticancer agent and a cancer cell not sensitive to a certain kind of anticancer agent, an influence of a drug-specific cell on the reprogramming was examined. […] Two days later, RNA was extracted from the cells, and the expression levels of NANOG and GDF3 were measured by quantitative RT-PCR (FIG. 5A).

SK-BR3 cell line [3] = test: Microarray analysis of gene expression change with or without 4F in SK-BR3; format: cell-based, human; conditions: SK-BR3 with or without 4F introduction
Description: as §1, §3

SK-BR3 cell line [4] = test: NANOG and GDF3 expression by quantitative RT-PCR in 4F-induced SK-BR3; format: cell-based, human; conditions: SK-BR3, Dox(4F)+, two days
Protocol: as §2, §4

[5] = tested on: EGFR mutation lung cancer cell line HCC827; conditions: stated as known; cited from earlier work
[6] = tested on: HER2-amplified breast cancer cell line SK-BR3; conditions: stated as known; cited from earlier work
[7] = Imatinib 1 or 10 μM, 5-FU 10 or 50 μM (FIG. 5B legend)

Row | Structure (SMILES) | expression of reprogramming marker PODXL [1] | PODXL expression [2] | expression of GDF3 (HCC827 cell line; [7]) | expression of NANOG (HCC827 cell line; [7]) | change of gene expression (many genes including PODXL and NANOG), microarray (SK-BR3 cell line [3]) | expression of GDF3 (HCC827 cell line; 0.5 μM) | expression of NANOG (HCC827 cell line; 0.5 μM) | expression of GDF3 (SK-BR3 cell line [4]; 0.05 μM) | expression of NANOG (SK-BR3 cell line [4]; 0.05 μM) | expression of GDF3 (SK-BR3 cell line [4]; 0.5 μM) | expression of NANOG (SK-BR3 cell line [4]; 0.5 μM) | sensitivity of cell line to drug [5] | sensitivity of cell line to drug [6]
1 | O=c1[nH]cc(F)c(=O)[nH]1 [5FU, 5-fluorouracil] | did not increase | did not increase | did not promote | did not promote | – | – | – | – | – | – | – | – | –
2 | CS(=O)(=O)CCNCc1ccc(-c2ccc3ncnc(Nc4ccc(OCc5cccc(F)c5)c(Cl)c4)c3c2)o1 [lapatinib] | promoted | – | – | – | upregulated or downregulated | promoted | promoted | promoted | promoted | promoted | promoted | sensitive | sensitive

From patent US11519901B2, “Method for screening for cancer therapeutic agent” (THE UNIVERSITY OF TOKYO, priority 2015, dated 2022)
